Experimental data as given in patent EP1018299A2, “Plant treatment agents” (BAYER AG, priority 1992, dated 1994).

Assay: UDOS (unilateral desorption from the outer surface): effect of accelerators on the mobility of 14C-labelled 2,4-D in isolated cuticles
Assay type: in vitro ADME, Citrus
Conditions: Abb. 11; for Zeitabhängigkeit der Effekte: effects increased with time; for Wirkungen (Effekt auf die Mobilität von 2,4-D): compared with Heptanol, Octanol, Nonanol and Decanol

| SMILES | Zeitabhängigkeit der Effekte | Wirkungen (Effekt auf die Mobilität von 2,4-D) |
| --- | --- | --- |
| CCCCCCO [Hexanol] | stark zeitabhängig | deutlich niedriger |
| CCCCCCCCCCCCO [Dodecanol] | stark zeitabhängig | deutlich niedriger |
